Converted amounts (≈) assume the structure as drawn.

For this experiment, the system named is Vaccinia virus. Kind of experiment: Antiviral activity against Vaccinia virus in HEL cells assessed as reduction of virus-induced cytopathogenicity. It counts as functional. The note with it: Orthopoxvirus vaccinia.
In the case of `Nc1nc2c(ncn2COCCO)c(=O)[nH]1` [ACYCLOVIR], the MIC was greater than 250 µM.

On to `O=c1[nH]c(=O)n([C@H]2C[C@H](O)[C@@H](CO)O2)cc1/C=C/Br` [BRIVUDINE], for which the MIC is 2 µM (≈ 0.666 µg/mL). For `Nc1nc2c(ncn2COC(CO)CO)c(=O)[nH]1` [GANCICLOVIR], the MIC is 100 µM (≈ 25.5 µg/mL).

As to `NC(=O)c1ncn([C@@H]2O[C@H](CO)[C@@H](O)[C@H]2O)n1` [RIBAVIRIN], the MIC worked out at 150 µM (≈ 36.6 µg/mL).

Values taken from ChEMBL document CHEMBL1148744, “Synthesis and antiviral and cytostatic evaluations of the new C-5 substituted pyrimidine and furo[2,3-d]pyrimidine 4',5'-didehydro-L-ascorbic acid derivatives” (J Med Chem, 2007).
